The test system of this test is Carbonic Anhydrase (CA). The test is described as follows: Surface plasmon resonance binding of compound to biotinylated CA-immobilized substrate. To be noted: for Binding signal (binding observed or not) / Amount of 100 nM Hydrochlorothiazide bound: 100 nM in 1×PBS (pH 7.4); for Binding signal (binding observed or not): all the substrates; for Binding activity / Mean binding activity: 100 nM; for Binding activity: one-to-one binding assumed, molecular weight conversion; for Mean binding activity: mean of the three substrates (7450, 3400, 1600 RV CA).

In the case of `NS(=O)(=O)c1cc2c(cc1Cl)NCNS2(=O)=O` [Hydrochlorothiazide], the “Binding signal (binding observed or not)” value was “binding signal was observed”. Under “amount of CA immobilized 1600 RV, Comparative example (without calibration)”, the “Amount of 100 nM Hydrochlorothiazide bound” value is on record as 7.1 RV. Moreover, the “Amount of 100 nM Hydrochlorothiazide bound” value (amount of CA immobilized 1600 RV, Example (with calibration of baseline, third curve approximation)) is recorded as 7.3 RV. In addition, for the setting “amount of CA immobilized 3400 RV, Example (with calibration of baseline, third curve approximation)”, the “Amount of 100 nM Hydrochlorothiazide bound” value came to 16.3 RV. In addition, under “amount of CA immobilized 7450 RV, Comparative example (without calibration)”, the “Amount of 100 nM Hydrochlorothiazide bound” value is 25.4 RV. Besides, the “Amount of 100 nM Hydrochlorothiazide bound” value (amount of CA immobilized 7450 RV, Example (with calibration of baseline, third curve approximation)) was 31.7 RV. Also, the Binding activity (CA immobilized 1600 RV, with calibration) is listed as 45.9%. Further, the Binding activity (CA immobilized 1600 RV, without calibration) is on record as 44.7%. The Binding activity (CA immobilized 3400 RV, with calibration) stood at 48.2%. The Binding activity (CA immobilized 3400 RV, without calibration) came to 40.6%. The Binding activity (CA immobilized 7450 RV, with calibration) is reported as 42.8%. This compound came in with a Binding activity (CA immobilized 7450 RV, without calibration) of 34.4%. The Mean binding activity (with calibration) turned out to be 45.6%. The Mean binding activity (without calibration) is 39.9%.

For `O=C(O)c1cccnc1` [Nicotinic acid], the “Binding signal (binding observed or not)” value is “no binding was observed”.

(Values after patent US20090068746A1, “METHOD FOR MEASURING INTERACTION BETWEEN PHYSIOLOGICALLY ACTIVE SUBSTANCE AND TEST SUBSTANCE” (FUJIFILM Corporation, priority 2007, published 2009).)
